Experimental findings from patent US20250057859A1, “CANNABICHROMENEQUINONE AND ANALOGUES THEREOF, AND METHOD OF USING COMPOSITIONS THEREOF AS ANTI-INFLAMMATORY AGENTS” (Juva Life, Inc., priority 2021, published 2025) are described below.

One assay relates to TNFα. The assay can be described thus: TNFa secretion assay in human PBMCs (LPS-stimulated, ELISA). The class given is cell-based. As to conditions: PBMC, LPS 100 ng/mL 6 hr, read-out: TNF inhibitory activity IC50. The protocol: Fetal bovine serum (FBS) was obtained from ThermoFisher (Cat #16000044). • Other reagents: 96well TC plates were obtained from ThermoFisher (Cat #07-2000-90). LPS was obtained from Sigma (Cat #L3024).
TNF-alpha was assessed using a standard ELISA protocol. Cryopreserved PBMCs were thawed in a water bath and transferred to 50 mL polypropylene tubes. The cells were washed two times with 25 mL of RPMI medium supplemented with 5% of heat-inactivated FBS and re-suspended at a density of 4.5^10^6 cells/mL. The cells were plated into 96 well TC late (100 uL/well). Serially diluted compound was added to the cells in duplicate wells for each concentration. Control wells received DMSO only (0.3% final). The cells were pre-incubated with compound for 1 hr. After pre-incubation, the cells were stimulated by LPS (100 ng/mL) for 6 hr. Control samples with and without LPS in the absence of compound were assembled in each test plate. TNFa was detected in media supernatants by using a sandwich anti-TNFα ELISA kit (BD Biosciences) according to protocol provided by the manufacturer. ELISA readout (optical density at 450 nm) is commensurable with the amount of TNFα produced by the cells. Assay window was determined in each experiment by comparing average OD450 values in stimulated and un-stimulated samples in the absence of compound. ELISA calibration was performed in each detection plate using serially diluted recombinant human TNFα, to ensure that OD450 values for all test samples were within linear range of detection.%-Inhibition by compound was calculated using following equation:
[formula] • where OD450100% is optical density in control samples stimulated with LPS without compound, OD4500% is optical density in unstimulated control samples, and OD450compound is optical density in a sample stimulated with LPS in the presence of compound.
(§1) The calculated %-Inh values were plotted against compound concentration. To determine IC50 values, dose-response curves were fitted by a 4-parameter sigmoid inhibition model using XLFit® software (IDBS).
(ELISA stands for enzyme-linked immunosorbent assay.)

In another assay the test system is IFN gamma. The assay can be described thus: IFN gamma secretion assay in human PBMCs (PHA-M-stimulated, ELISA). The class given is cell-based. The following applies: PBMC, PHA-M 10 ug/mL 40 hr, read-out: IFNγ inhibitory activity IC50. Here is the method:
Fetal bovine serum (FBS) was obtained from ThermoFisher (Cat #16000044). • Other reagents: 96well TC plates were obtained from ThermoFisher (Cat #07-2000-90).
IFN-gamma was assessed using a standard ELISA protocol. Cryopreserved PBMCs were thawed in a water bath and transferred to 50 mL polypropylene tubes. The cells were washed two times with 25 mL of RPMI medium supplemented with 5% of regular FBS and re-suspended at a density of 1.5^10^6 cells/mL. The cells were plated into 96 well TC late (100 uL/well). Serially diluted compound was added to the cells in duplicate wells for each concentration. Control wells received DMSO only (0.3% final). The cells were pre-incubated with compound for 2 hr. After pre-incubation, the cells were stimulated by PHA-M (10 ug/mL) for 40 hr. Control samples with and without PHA-M in the absence of compound were assembled in each test plate. IFNg was detected in media supernatants by using a sandwich anti-IFNg ELISA kit (BD Biosciences) according to protocol provided by the manufacturer. ELISA readout (optical density at 450 nm) is commensurable with the amount of IFNg produced by the cells. Assay window was determined in each experiment by comparing average OD450 values in stimulated and un-stimulated samples in the absence of compound. ELISA calibration was performed in each detection plate using serially diluted recombinant human IFN gamma, to ensure that OD450 values for all test samples were within linear range of detection.%-Inhibition by compound was calculated using following equation:
[formula] • where OD450100% is optical density in control samples stimulated with PHA-M without compound, OD4500% is optical density in unstimulated control samples, and OD450compound is optical density in a sample stimulated with PHA-M in the presence of compound.
as §1

Molecules are shown by their SMILES.

One may read the IC50 as the concentration needed to halve the response being measured. In the case of `CCCCCC1=C(NCCC)C(=O)C2=C(OC(C)(CCC=C(C)C)C=C2)C1=O` (stereo not shown) [Formula XXV], the IC50 is 9 µM with TNFα and above 10 µM in the assay on IFN gamma.

Consider `CCCCCC1=CC(=O)C2=C(OC(C)(CCC=C(C)C)C=C2)C1=O` (stereo not shown) [Formula II], for which the IC50 is 0.93 µM with TNFα and 0.39 µM with IFN gamma.

In the case of `CCCCCC1=CC(=O)C2=C(O[C@](C)(CCC=C(C)C)C=C2)C1=O` [Formula XXVI], the IC50 in the assay with TNFα worked out at 0.62 µM; in the assay on IFN gamma it was 0.31 µM.

On to `CCCCCc1cc(O)c2c(c1O)OC(C)(CCC=C(C)C)C=C2` (stereo not shown) [Formula XXII], for which the half-maximal inhibitory concentration (IC50) with TNFα came out at 9.2 µM; with IFN gamma it was 1.97 µM.

`CCCCCC1=C(NCC)C(=O)C2=C(OC(C)(CCC=C(C)C)C=C2)C1=O` (stereo not shown) [Formula XXVIII]: the half-inhibitory concentration (IC50) with TNFα and in the assay with IFN gamma was above 10 µM in each case.

Turning to `CC(C)=CCCC1(C)C=CC2=C(O1)C(=O)c1ccccc1C2=O` (stereo not shown) [Formula XXVII], the IC50 in the assay with TNFα and in the assay on IFN gamma was above 10 µM in each case.

Take `CCCCCc1cc(OC)c2c(c1OC)OC(C)(CCC=C(C)C)C=C2` (stereo not shown) [Formula XXIV]: the 50% inhibitory concentration (IC50) was found to be 10.6 µM in the assay with TNFα and 4.2 µM in the assay on IFN gamma.

Consider `CCCCCc1cc(OC(C)=O)c2c(c1OC(C)=O)OC(C)(CCC=C(C)C)C=C2` (stereo not shown) [Formula XXIII], for which the figures for the 50% inhibitory concentration (IC50) in the assay with TNFα and with IFN gamma were 9.95 µM and 0.48 µM, respectively.
